According to publication PMC11992225, “Antibacterial compounds against non-growing and intracellular bacteria” (npj Antimicrobials and Resistance, 2025):
Values after ≈ are worked out from the molar mass of the structure shown. Read-outs that look alike come from different tables or passages of the source.

Tests used:
[1] = system: P. aeruginosa DSM1117; assay: MIC, standard microdilution assay, growing P. aeruginosa; assay type: cell-based, Pseudomonas aeruginosa; conditions: Pseudomonas aeruginosa
Procedure, shortened: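 Each strain was exposed to serially diluted compound in broth, in triplicate. The media were TSB for Shigella; CA-MHB at pH 7.4 (HEPES 40 mM) for S. aureus, P. aeruginosa and UPEC; and, for UPEC only, low-pH LPM (pH 5.5, 30 mM MES).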

[2] = system: non-growing UPEC CFT073; assay: Dilution-regrowth assay (screen, hit validation, dose-response) on stationary-phase UPEC; assay type: cell-based, Escherichia coli; conditions: for EC50: Escherichia coli
Procedure, shortened: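 Regrowth (OD600 after 6 h, 37 °C) of diluted non-growing CFT073, following 24 h compound treatment of 24 h stationary cultures, defines activity relative to untreated control. Screen at 20 µM, validation at 20, 10, 5 µM (duplicates), dose–response in three biological replicates fitted by five-parameter logistic.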

[3] = system: non-growing S. aureus DSM2569; assay: Dilution-regrowth assay (OD600, start-growth-time) on stationary-phase S. aureus; assay type: cell-based, Staphylococcus aureus; conditions: for Regrowth, OD600 at 6h or 8h after dilution into drug-free medium (average): S. aureus
Procedure, shortened: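 Non-growing S. aureus was tested in a dilution-regrowth format. Cells were cultured and treated for 24 h in 1:4 diluted CA-MHB, pH 7.4, then diluted into drug-free medium, and OD600 was measured every 20 min. Start-growth-time was the time OD600 passed 0.12. Dose-response curves were fitted with a five-parameter logistic equation to derive EC50.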

[4] = system: non-growing P. aeruginosa DSM1117; assay: Dose-dependent killing analysis (CFU spot-plating) of stationary-phase P. aeruginosa; assay type: cell-based, Pseudomonas aeruginosa; conditions: for killing, average Δlog10(CFU/ml): P. aeruginosa
Procedure, shortened: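 Viability by CFU: samples serially diluted 10-fold in PBS, spotted on LB agar, grown overnight at 37 °C, and colonies counted at the lowest resolvable dilution. Non-growing P. aeruginosa DSM1117 had been dosed for 24 h in 1:4 CA-MHB (pH 7.4); three biological replicates.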

In the case of `CO[C@@]12[C@H](COC(N)=O)C3=C(C(=O)C(C)=C(N)C3=O)N1C[C@@H]1N[C@@H]12` [Mitomycin C], the MIC ([1]; DSM1117, pH 7.4, read-out: MIC (μM) 1:4 CA-MHB) is reported as 10 µM (≈ 3.34 µg/mL), the MIC ([1]; DSM1117, pH 7.4, read-out: MIC (μM) CA-MHB) is reported as 10 µM (≈ 3.34 µg/mL) and the “Regrowth, OD600 at 6h or 8h after dilution into drug-free medium (average)” value ([2]; E. coli in 1:4 CA-MHB (pH 7.4), drug concentration 0.25) is reported as 0.575. For the same molecule, the “Regrowth, OD600 at 6h or 8h after dilution into drug-free medium (average)” value ([2]; E. coli in 1:4 CA-MHB (pH 7.4), drug concentration 0.5) was 0.556, the “Regrowth, OD600 at 6h or 8h after dilution into drug-free medium (average)” value ([2]; E. coli in 1:4 CA-MHB (pH 7.4), drug concentration 1) was 0.551 and the “Regrowth, OD600 at 6h or 8h after dilution into drug-free medium (average)” value ([2]; E. coli in 1:4 CA-MHB (pH 7.4), drug concentration 2.5) was 0.482. The “Regrowth, OD600 at 6h or 8h after dilution into drug-free medium (average)” value ([2]; E. coli in 1:4 CA-MHB (pH 7.4), drug concentration 5) was 0.179, the “Regrowth, OD600 at 6h or 8h after dilution into drug-free medium (average)” value ([2]; E. coli in 1:4 CA-MHB (pH 7.4), drug concentration 10) was 0.065 and the “Regrowth, OD600 at 6h or 8h after dilution into drug-free medium (average)” value ([2]; E. coli in 1:4 CA-MHB (pH 7.4), drug concentration 30) was 0.063. The “Regrowth, OD600 at 6h or 8h after dilution into drug-free medium (average)” value ([2]; E. coli in LPM (pH 5.5), drug concentration 0.25) was 0.474, the “Regrowth, OD600 at 6h or 8h after dilution into drug-free medium (average)” value ([2]; E. coli in LPM (pH 5.5), drug concentration 0.5) was 0.440 and the “Regrowth, OD600 at 6h or 8h after dilution into drug-free medium (average)” value ([2]; E. coli in LPM (pH 5.5), drug concentration 1) was 0.294. For the same molecule, the “Regrowth, OD600 at 6h or 8h after dilution into drug-free medium (average)” value ([2]; E. coli in LPM (pH 5.5), drug concentration 2.5) was 0.140, the “Regrowth, OD600 at 6h or 8h after dilution into drug-free medium (average)” value ([2]; E. coli in LPM (pH 5.5), drug concentration 5) was 0.136 and the “Regrowth, OD600 at 6h or 8h after dilution into drug-free medium (average)” value ([2]; E. coli in LPM (pH 5.5), drug concentration 10) was 0.136. The “Regrowth, OD600 at 6h or 8h after dilution into drug-free medium (average)” value ([2]; E. coli in LPM (pH 5.5), drug concentration 30) was 0.134, the EC50 ([2]; pH 5.5) was 706 nM and the EC50 ([2]; pH 5.5, read-out: EC50 (regrowth inhibition curve, Fig. S4)) was 690 nM. The EC50 ([2]; pH 7.4) was 3680 nM, the EC50 ([2]; pH 7.4, read-out: EC50 (regrowth inhibition curve, Fig. S4)) was 3770 nM and the “activity against non-growing UPEC in LPM (pH 5.5) compared to 1:4 CA-MHB (pH 7.4)” value ([2]; regrowth delay and killing, Figs. 2 and 3) was “potentiated by the low pH”. The “Regrowth, OD600 at 6h or 8h after dilution into drug-free medium (average)” value ([3]; drug concentration 0.1) was 0.433, the “Regrowth, OD600 at 6h or 8h after dilution into drug-free medium (average)” value ([3]; drug concentration 0.5) was 0.163 and the “Regrowth, OD600 at 6h or 8h after dilution into drug-free medium (average)” value ([3]; drug concentration 2.5) was 0.087. For the same molecule, the “Regrowth, OD600 at 6h or 8h after dilution into drug-free medium (average)” value ([3]; drug concentration 10) was 0.106, the EC50 ([3]; Staphylococcus aureus, DSM2569, pH 7.4) was 129 nM and the “killing, average Δlog10(CFU/ml)” value ([4]; drug concentration 0.1) was 1.020 log10(CFU/ml). For the same molecule, the “killing, average Δlog10(CFU/ml)” value ([4]; drug concentration 0.5) was 2.346 log10(CFU/ml), the “killing, average Δlog10(CFU/ml)” value ([4]; drug concentration 2.5) was 4.887 log10(CFU/ml) and the “killing, average Δlog10(CFU/ml)” value ([4]; drug concentration 10) was 4.887 log10(CFU/ml). For the same molecule, the “killing of non-growing P. aeruginosa” value ([4]; at 2.5 µM, 24 h treatment) was > 4 log10.
